In patent US20250297310A1, “HEMATOPOIETIC LOSS OF Y CHROMOSOME LEADS TO CARDIAC FIBROSIS AND DYSFUNCTION AND IS ASSOCIATED WITH DEATH DUE TO HEART FAILURE” (University of Virginia Patent Foundation, priority 2022, published 2025):

Tests used:
[1] = Effect of senolytic ABT-263 on lifespan and kidney function in aging hematopoietic Uty-KO mice; type: in vivo
Text: FIGS. 28A-28C. The effect of the senolytic ABT-263 on lifespan and kidney function in aging hematopoietic Uty-KO mice. FIG. 28A. Exemplary model of ABT-263 mice. FIGS. 28B and 28C.
FIGS. 28A-28C show the effect of the senolytic ABT-263 on lifespan and kidney function in aging hematopoietic Uty-KO mice, using an exemplary model of ABT-263 mice.

[2] = tested on: centromere of the Y chromosome; assay: Y chromosome ablation efficiency by FISH analysis of tRFP-positive blood cells; type: cell-based; settings: tRFP-positive blood cells from reconstituted mice
Text: Plasmids. Single guide RNAs (sgRNA) targeting the centromere of the Y chromosome (gRNA1, gRNA2) were from a previous report (Adikusuma et al., 2017), and the control gRNA is non-targeting. sgRNA sequences are listed in Table 4. Single stranded sgRNA sequences were annealed and cloned into pLKO.sgRNA.EFS.tRFP following restriction digestion with Esp3I, and successful cloning was confirmed by Sanger sequencing with U6 primer (Table 4). Plasmids were from Addgene (pLKO5.0.sgRNA.EFS.tRFP, plasmid #57823; psPAX2; plasmid #12260; and pMD2.G, plasmid #12259).
Ex vivo genome editing of HSPC. sgRNAs were delivered lentivirally to bone marrow lineage-negative cells obtained from ROSA26Cas9 knock-in mice as described previously (Sano et al., 2019).
Fluorescence in situ hybridization (FISH). […] 200 interphase nuclei were analyzed by two technologists using an Olympus fluorescence microscope (model BX-41).
We constructed a mouse model of hematopoietic mLOY by employing CRISPR/Cas9 gene editing to target repeat DNA sequences that are specific to the centromere of the Y chromosome. […] Two LOY-gRNAs (LOY-gRNA1 and 2) targeting different repeat sequences within the centromere were evaluated for the efficiency of Y chromosome ablation by fluorescent in situ hybridization (FISH) analysis of X and Y chromosome in tRFP-positive blood cells collected from mice reconstituted with bone marrow cells. […]

| Compound | progression of renal dysfunction [1] | survival [1] | Y chromosome ablation efficiency [2] |
| --- | --- | --- | --- |
| CC1(C)CCC(c2ccc(Cl)cc2)=C(CN2CCN(c3ccc(C(=O)NS(=O)(=O)c4ccc(N[C@H](CCN5CCOCC5)CSc5ccccc5)c(S(=O)(=O)C(F)(F)F)c4)cc3)CC2)C1 [ABT-263] | suppressed the progression of renal dysfunction | promoted survival | – |
| LOY-gRNA1: guide RNA targeting a repeat sequence in the centromere of the Y chromosome, SEQ ID NOs: 1-2 (guide 1 CACCGGAGUUAAUAUAAAAAACA; guide 2 AAACUGUUUUUUAUAUUAACUCC; listed as RNA, chemistry not fully specified) | – | – | approximately 95% |
